Measured values published in PubChem BioAssay (NCI).
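Cultured in 96-well plates, cells were exposed to test compound for 48 hours across five concentrations. TGI: concentration producing complete growth inhibition.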

Columns and labels:
Test in all cases: DTP human tumour cell line panel, 48 h
[1] = test system: OVCAR-4 ovarian
[2] = test system: NCI-H460 lung
[3] = test system: U251 CNS
[4] = test system: SK-MEL-2 melanoma
[5] = test system: BT-549 breast
[6] = test system: SR leukemia
[7] = test system: T-47D breast
[8] = test system: PC-3 prostate
[9] = test system: UACC-257 melanoma
[10] = test system: HT29 colon
[11] = test system: OVCAR-5 ovarian
[12] = test system: SK-OV-3 ovarian

SMILES	TGI [1] [µM]	TGI [2] [µM]	TGI [3] [µM]	TGI [4] [µM]	TGI [5] [µM]	TGI [6] [µM]	TGI [7] [µM]	TGI [8] [µM]	TGI [9] [µM]	TGI [10] [µM]	TGI [11] [µM]	TGI [12] [µM]
O=c1cc(-c2ccc(O)c(O)c2)oc2cc(OC3OC(CO)C(O)C(O)C3O)cc(O)c12 (stereo not given)	> 100	> 100	> 100	> 100	> 100	> 100	> 100	> 100	> 100	> 100	> 100	> 100
COc1ccc2oc(=N)c(C(N)=S)cc2c1	> 100	39.7	> 100	38.3	43.5	> 100	99.3	93.7	93.4	> 100	> 100	> 100
Nc1ncc2c(n1)-c1ccccc1OC2NC1CC1 (stereo not given)	> 100	> 100	> 100	> 100	> 100	> 100	> 100	> 100	> 100	> 100	> 100	> 100
N#C/C(=C\c1ccc(Cl)cc1)c1nc2ccccc2c(=O)[nH]1	> 100	> 100	> 100	> 100	69.2	> 100	> 100	> 100	> 100	> 100	> 100	> 100
CC[C@@]1(O)C(=O)OCc2c1c(Cl)c1n(c2=O)Cc2cc3ccccc3nc2-1	63.1	4.25	11.5	52.7	> 47.7	> 23.7	> 23	> 100	26.7	> 100	85.8	45.5
CCOc1ccc(C2c3[nH]c4ccccc4c3CCN2C(=O)c2cccs2)cc1 (stereo not given)	> 100	32.8	> 100	> 100	> 100	> 100	> 100	> 100	> 100	> 100	> 100	> 100
CN(C)c1ccc(C(C#N)N2CCCN(C(C#N)c3ccc(N(C)C)cc3)C2c2ccc(N(C)C)cc2)cc1 (stereo not given)	> 100		> 100	> 100	> 100	> 100	> 100	> 100	> 100	> 100	> 100	> 100
CCOP(=O)(CS(C)=O)O[C@@H]1C[C@H](C)CC[C@H]1C(C)C (stereo not given in full)	> 39.3	17.6	16.1	12.8	17.3	> 100	> 29.7	19.7	18.7	> 34.1	15.2	19.9
O=C(/C=C/c1ccc(O)c(O)c1)NC(CO)C(=O)O (stereo not given)	> 100	> 100	> 100	> 100	> 100	> 100	> 100	> 100	> 100	> 100	> 100	> 100
CC(=O)OCC(OC(C)=O)C(OC(C)=O)C(/C=N/N(C(C)=O)S(=O)(=O)c1ccc(/C=C2\NC(=O)NC2=O)cc1)OC(C)=O (stereo not given)	> 100	> 100	> 100	> 100	> 100	> 100	> 100	> 100	> 100	> 100	> 100	> 100
COC(=O)n1c(=O)nc2c3c(ncn21)Oc1c(c(-c2ccccc2)nn1-c1ccccc1)C3c1ccc(Cl)cc1 (stereo not given)	4.66	3.09	3.08	3.07	17.7	4.31	3.23	2.94	3.76	2.9	2.58	12.1
CCN(CC)c1ccc(/C=C/C2=NN(c3cccc(S(=O)(=O)O)c3)C3(C2)C(Cl)C(=O)N3c2nc3ccccc3s2)cc1 (stereo not given)	9.83	25.8	15.5	29.3	22.7	7.41	12.9	25.1	22.6	33.9	58.7	39.3
COc1ccc(NC=O)c(C(O)CCNC(C)=O)c1 (stereo not given)	> 100	> 100	> 100	> 100	> 100	> 100	> 100	> 100	> 100	> 100	> 100	> 100
COc1ccc(CSCc2cc(OC)c(OC)c(OC)c2)cc1	> 100	> 100	> 100	> 100	> 100	> 100	> 100	> 31.6	> 31.6	> 100	> 100	> 100
CC(=O)NNC=N/C(C#N)=C(\N)C#N	> 100	> 100	> 100	> 100	> 100	> 100	> 100	> 100	> 100	> 100	> 100	> 100
NN/C(=N\S(=O)(=O)c1cc(Cl)c(Oc2ccc([N+](=O)[O-])cc2Cl)c(Cl)c1)Nc1ccc(Cl)cc1	57.1	31.9	30.8	35.3	40.9	57.7	56.5	81.6	34.6	39.1	55	> 100
COc1cc(C2c3cccc4cccc(c34)C3CCC(=O)N32)cc(O)c1O (stereo not given)	45	> 50	> 50	> 50	> 50	29.5	> 50	> 50	> 50	> 50	> 50	> 50
CN1CC=C(OP(=O)(NCc2ccccc2)N(CCCl)CCCl)CC1 (stereo not given)	> 100	> 100	> 100	> 100	> 100	> 100	> 100	> 100	> 100	> 100	> 100	> 100
